Assay results published in ChEMBL document CHEMBL3507680, “University of Dundee, Gates Library screen for HepG2 cell viability”.

assay: Human HepG2 cell viability assay in 384 well format; format: toxicity, cell-based; set-up: dose 125 nL, time 70.5 hour; concentration not given beside the values; conditions: HepG2 cells, read-out: Inhibition

Point of comparison: Cc1ccc(OCC(=O)NCc2sccc2C)nc1, cytotoxicity at 70.5 h -3.68%. Against it:
- Cc1cc(=O)n2ncnc2n1CC(O)COCc1ccccc1Cl (stereo unspecified) — lower, -9.61%
- CC(C)c1ccc(CS(=O)(=O)CC(=O)NCc2ccccc2F)cc1 — lower, -17.3%
- O=C(NCC(O)c1ccc(F)c(F)c1)c1ccccc1F (stereo unspecified) — lower, -9.96%
- Cc1ccccc1C(=O)NCC(O)c1ccc(F)c(F)c1 (stereo unspecified) — lower, -5.82%
- COc1ncccc1CNC(=O)CN1CCCCCC1=O — lower, -16.5%
- CC(C)Cc1noc(CN2CCCN(C(=O)c3cccc(Cl)c3)CC2)n1 — higher, 23.3%
- O=C(CS(=O)(=O)Cc1ccc(F)cc1)NCc1ccccc1F — lower, -8.79%
- Cc1ccc(C(=O)NCC(O)c2ccc(F)c(F)c2)c(=O)[nH]1 (stereo unspecified) — lower, -10.6%
- CC(C)Oc1ncc(C(=O)N2CCC(CC(N)=O)CC2)cc1Cl — lower, -8.52%
- O=C(CS(=O)(=O)Cc1ccccc1)NCc1ccccc1F — higher, 22.1%
- COC(C)C(=O)Nc1cc(C(=O)N2CCSCC2)ccc1C (stereo unspecified) — higher, 0.013%
- COCCCNC(=O)Nc1cc(-c2ccccc2C)nn1CCO — lower, -5.71%
- COC(=O)CCN1CCC(C(=O)c2cc(F)ccc2F)CC1 — lower, -12.5%
- CN(C)C(=O)Cc1nc(CN2CCCCC2Cn2cncn2)cs1 (stereo unspecified) — higher, 23.2%
- Cc1ccccc1-c1cc(NC(=O)NC2CC2)n(CCO)n1 — higher, 1.97%
- O=C(NCCN1C(=O)CCC1=O)c1nc2ccccc2c(=O)[nH]1 — lower, -12.2%
- Cc1n[nH]c(C2CN(C(=O)c3coc(Br)c3)CCO2)n1 (stereo unspecified) — lower, -10.2%
- Cc1n[nH]c(C2CN(C(=O)c3ccc4c(c3)COC4)CCO2)n1 (stereo unspecified) — higher, -1.57%
- O=C(CNC(=O)c1c(F)cccc1Cl)Nc1ccc(F)cn1 — lower, -12.6%
- Cc1n[nH]c(C2CN(C(=O)c3csnn3)CCO2)n1 (stereo unspecified) — lower, -11.9%
- Cc1csc(NC(=O)c2cccnc2N2CCOCC2)n1 — higher, 18.7%
- CNC(=O)CS(=O)(=O)Cc1ccc(OC)c(F)c1 — lower, -11.9%
- CN(C)C(=O)Cc1nc(CN2CCCC2Cn2cncn2)cs1 (stereo unspecified) — lower, -10.9%
- Cc1nnc(CN(C)C2CCN(CCc3cccs3)C2)n1C (stereo unspecified) — higher, 15.2%
- Cc1cccc(C(=O)N2CCN(c3ccccc3F)CC2)n1 — lower, -7.27%
- CN(CC(=O)NC1CC1)S(=O)(=O)c1ccc(F)cc1Cl — lower, -3.95%
- CCCc1nnc(NC(=O)NC2CCOc3ccccc32)s1 (stereo unspecified) — lower, -4.65%
- CC(=O)c1c(F)cccc1N1CCC(C(N)=O)CC1 — higher, -1.92%
- CC(=O)N1CCN(C(=O)CN2CCN(c3cccc(C)c3)CC2)CC1 — lower, -6.8%
- CCc1noc(C)c1C(=O)Nc1cnn(CC(=O)NC2CCCC2)c1 — higher, -1.44%
- COc1ccc(C(=O)Nc2c(C)nn(C(C)C)c2C)cc1 — higher, 23.1%
- CCN(CC)C(=O)CCNC(=O)c1ccccc1N1CCOCC1 — higher, 23.2%
- CCCNC(=O)CCNC(=O)c1ccccc1N1CCOCC1 — lower, -4.62%
- Cc1cccc(CNCCOc2ccc(S(C)(=O)=O)cc2)c1 — higher, -0.853%
- CCN(CC)c1ccc(NS(=O)(=O)c2cnn(CC)c2)cn1 — higher, 1.09%
- Cc1noc(C)c1CNC(=O)N1CCC(OCC2CC2)CC1 — higher, 25.4%
- CCN(C1CCN(c2cccc(F)c2C(C)=O)CC1)S(C)(=O)=O — lower, -5.28%
- CN(Cc1nnc(C2CC2)n1C)C1CCN(CCc2ccccc2)C1 (stereo unspecified) — higher, -3.03%
- CCCN1CCCN(c2ncccc2C(=O)N2CCCCC2)CC1 — higher, -2.98%
- Cc1cc(C)c(C(=O)Nc2cccc(CN3CCC(CO)CC3)c2)o1 — higher, 4.26%
- COC(=O)C(C)(C)NC(=O)C1CC(=O)N(CC(C)C)C1 (stereo unspecified) — higher, -0.314%
- CCN1CC(C(=O)NC(C)(C)C(=O)OC)CC1=O (stereo unspecified) — higher, 3.17%
- N#Cc1ncn(CCC(=O)Nc2cc(Cl)ccc2Cl)n1 — lower, -4.2%
- COc1ccc(CC(=O)NCCNS(=O)(=O)c2ccc(C)cc2)cc1 — higher, 2.16%
- COc1ccc(OCCN(C)C(=O)c2ccc(OC)cc2O)cc1 — lower, -9.58%
- CC(c1cccnc1)N1CCN(CCc2ccccn2)CC1 (stereo unspecified) — higher, -0.575%
- c1ccn2c(SCC3CN=C(N4CCOCC4)S3)ncc2c1 (stereo unspecified) — higher, 19.3%
- COc1ccc(CNC(C)c2cn[nH]c2C)cc1 (stereo unspecified) — higher, 14.1%
- CC(C)c1nc(C2CCCN2C(=O)CN(C)Cc2ccccc2)no1 (stereo unspecified) — higher, 11.3%
- Cc1n[nH]c(SCC(=O)NC(c2ccncc2)C(C)C)n1 (stereo unspecified) — higher, 21%
- CC(C)c1cccc(CSc2nnc(Cn3cncn3)o2)n1 — lower, -7.35%
- CCN(Cc1ccoc1)C(C(N)=O)c1cccc(Br)c1 (stereo unspecified) — lower, -7.25%
- CNC(=O)CCN1CCCCCC1c1ccc(C)o1 (stereo unspecified) — higher, 13.3%
- CCN(C(C)=O)c1nc(CN2CCN(c3nccs3)CC2)cs1 — higher, 23.5%
- CC(C)c1nnc(NC(=O)CCc2cc(F)ccc2F)[nH]1 — lower, -16.3%
- Cc1cn2nc(N3CCCC3C(=O)N3CCOCC3)sc2n1 (stereo unspecified) — lower, -15.3%
- Cc1nnc(N2CCNCC2)c(C(N)=O)c1C — lower, -16.9%
- O=C(NCc1cccc(F)c1)Nc1ccn(CCN2CCOCC2)n1 — lower, -4.92%
- O=C(NCc1ccccc1F)Nc1ccn(CCN2CCOCC2)n1 — lower, -15.3%
- Cc1ccc(C2CCCCCN2CCNS(C)(=O)=O)o1 (stereo unspecified) — lower, -5.05%
- CC(C)c1cc(CNC(=O)Nc2cc(F)cc(N3CCCC3)c2)on1 — higher, 17.1%
- CCc1cc(CNC(=O)Nc2cc(F)cc(N3CCCC3)c2)on1 — lower, -11.5%
- CN(Cc1ccc([S+](C)[O-])cc1)c1cncc(Cl)n1 (stereo unspecified) — lower, -15.4%
- CCCc1cc(C(=O)Nc2nc(SC)ns2)[nH]n1 — lower, -4.32%
- CCOc1cccc(NC(=O)Cc2cccc(O)c2)n1 — higher, 16.2%
- CC(C)(C)OC(=O)NC1CCC(NC(=O)c2ccc[nH]2)CC1 (stereo unspecified) — lower, -6.62%
- O=C1CCc2cc(S(=O)(=O)NC(=O)c3ccc4c(c3)CCO4)ccc2N1 — higher, -1.87%
- O=c1[nH]nc2n1CCN(S(=O)(=O)c1ccccc1Cl)C2 — lower, -7.03%
- CCCc1nnnn1Cc1cn2c(C)cccc2n1 — higher, -2.3%
- CNC(=O)COc1ccccc1CNCc1c(C)noc1C — higher, -3.67%
- Cc1cc(CNC(=O)CC2CN(C(=O)OC(C)(C)C)C2)ccc1F — lower, -9.79%
- CN(Cc1ccc([S+](C)[O-])cc1)c1ccc(Br)cn1 (stereo unspecified) — higher, -0.515%
- Cc1ccc(C2CCCCCN2CCCS(C)(=O)=O)o1 (stereo unspecified) — lower, -10.5%
- CCOc1cccc(CCNC(=O)Cc2ccccc2O)n1 — lower, -14.9%
- O=C(CN1CCC2(CCCCC2)C1)NCC(F)(F)F — lower, -9.38%
- CSc1ccc(NC(=O)COCc2ccccc2)nc1 — higher, 15%
- CCCn1nnnc1CSCc1cn2c(C)cccc2n1 — lower, -12.9%
- CCCC(C)(C)NC(=O)c1cnc(CC)s1 — higher, -1.12%
- CCc1ncc(C(=O)NC(C)(C)C(=O)OC)s1 — higher, 12.2%
- Cn1nnnc1SCCC(=O)NCC(C)(C)c1ccccc1F — higher, 19.1%
- CC(C)(CNC(=O)CSc1nnnn1C1CC1)c1ccccc1F — lower, -7.67%
- COCCCSc1ccc(NC(=O)Nc2cn[nH]c2)cc1 — higher, 18.2%
- N#Cc1ccc(N2CCN(c3cnccn3)CC2)cc1C(F)(F)F — higher, 24.7%
- Cc1nc2n(n1)CCN(S(=O)(=O)c1ccc(OC(F)(F)F)cc1)C2 — higher, -1.32%
- Cc1nc2n(n1)CCN(S(=O)(=O)c1ccc(Cl)cc1)C2 — higher, -3.28%
